Laboratory results: ChEMBL document CHEMBL2203224, “Diversity of polyphenol action in Caenorhabditis elegans: between toxicity and longevity” (J Nat Prod, 2011)
Calls of active or inactive are those of the source. No cut-off for these calls is given here.

What was measured:
[1] = test system: Caenorhabditis elegans; test: Increase of lifespan of L4 larvae of Caenorhabditis elegans at 35 degC after 8 hrs; assay type: functional, organism-based
[2] = test system: Caenorhabditis elegans; test: Increase of frequency of pharyngeal pumping in Caenorhabditis elegans at 300 uM on 9th day of adulthood; assay type: functional, organism-based
[3] = test system: Caenorhabditis elegans; test: Increase of lifespan of L4 larvae of Caenorhabditis elegans after 8 hrs in presence of H2O2; assay type: functional, organism-based
[4] = test system: Caenorhabditis elegans; test: […] assessed as trolox equivalent of lipid soluble antioxidant metabolites at 300 uM by photochemiluminescence assay; assay type: functional, organism-based
[5] = test system: Caenorhabditis elegans; test: Toxicity in L4 larvae of Caenorhabditis elegans at 800 uM after 8 hrs; assay type: organism-based; settings: in vivo
[6] = test system: Caenorhabditis elegans; test: Reduction of initial reproduction rate in Caenorhabditis elegans assessed as first egg deposition at 300 uM after 85 hrs; assay type: functional, organism-based
[7] = test system: Caenorhabditis elegans; test: Increase of lifespan of L4 larvae of Caenorhabditis elegans after 8 hrs; assay type: functional, organism-based
[8] = test system: Caenorhabditis elegans; test: Reduction of frequency of pharyngeal pumping in Caenorhabditis elegans at 300 uM on 3rd to 9th day of adulthood; assay type: functional, organism-based
[9] = test system: Caenorhabditis elegans; test: Increase of mean lifespan of L4 larvae of Caenorhabditis elegans harboring eat-2 (ad465) at 300 uM after 8 hrs; assay type: functional
[10] = test system: Caenorhabditis elegans; test: Increase of lifespan of L4 larvae of Caenorhabditis elegans assessed as lifespan increasing concentration after 8 hrs; assay type: functional
[11] = test system: Caenorhabditis elegans; test: Increase of lifespan of L4 larvae of Caenorhabditis elegans at 300 uM in presence of heat killed bacteria; assay type: functional, organism-based
[12] = test system: Caenorhabditis elegans; test: Increase of lifespan of L4 larvae of Caenorhabditis elegans at 300 uM at 35 degC after 8 hrs; assay type: functional, organism-based
[13] = test system: Caenorhabditis elegans; test: Increase of lifespan of L4 larvae of Caenorhabditis elegans at 300 uM after 8 hrs in presence of H2O2; assay type: functional, organism-based
[14] = test system: Caenorhabditis elegans; test: Increase of median lifespan of L4 larvae of Caenorhabditis elegans harboring eat-2 (ad465) at 300 uM after 8 hrs; assay type: functional
[15] = test system: Caenorhabditis elegans; test: […] assessed as ascorbic acid equivalent of water soluble antioxidant metabolites at 300 uM by photochemiluminescence assay; assay type: functional, organism-based
[16] = test system: Caenorhabditis elegans; test: Increase of body length of L4 larvae of Caenorhabditis elegans at 300 uM by microscopic analysis; assay type: functional, organism-based
[17] = test system: Caenorhabditis elegans; test: Reduction of initial reproduction rate in Caenorhabditis elegans assessed as first egg deposition at 100 uM after 85 hrs; assay type: functional, organism-based
[18] = test system: Caenorhabditis elegans; test: […] assessed as ascorbic acid equivalent of water soluble antioxidant metabolites at 100 uM by photochemiluminescence assay; assay type: functional, organism-based
[19] = test system: Caenorhabditis elegans; test: Increase of mean lifespan of L4 larvae of wild type Caenorhabditis elegans at 100 uM after 8 hrs; assay type: functional
[20] = test system: Caenorhabditis elegans; test: Reduction of triglyceride level in Caenorhabditis elegans at 100 uM; assay type: functional, organism-based
[21] = test system: Caenorhabditis elegans; test: Reduction of body length of L4 larvae of Caenorhabditis elegans at 100 uM by microscopic analysis; assay type: functional, organism-based
[22] = test system: Caenorhabditis elegans; test: Increase of mean lifespan of L4 larvae of Caenorhabditis elegans harboring mev-1 (kn1) mutant at 100 uM after 8 hrs; assay type: functional
[23] = test system: Caenorhabditis elegans; test: Reduction of frequency of pharyngeal pumping in Caenorhabditis elegans at 100 uM on 3rd to 9th day of adulthood; assay type: functional, organism-based
[24] = test system: Caenorhabditis elegans; test: […] assessed as trolox equivalent of lipid soluble antioxidant metabolites at 100 uM by photochemiluminescence assay; assay type: functional, organism-based
[25] = test system: Caenorhabditis elegans; test: Reduction of frequency of pharyngeal pumping in Caenorhabditis elegans at 200 uM on 3rd to 9th day of adulthood; assay type: functional, organism-based
[26] = test system: Caenorhabditis elegans; test: Increase of frequency of pharyngeal pumping in Caenorhabditis elegans at 200 uM on 3rd to 9th day of adulthood; assay type: functional, organism-based
[27] = test system: Caenorhabditis elegans; test: Reduction of body length of L4 larvae of Caenorhabditis elegans at 200 uM by microscopic analysis; assay type: functional, organism-based
[28] = test system: Caenorhabditis elegans; test: Reduction of initial reproduction rate in Caenorhabditis elegans assessed as first egg deposition at 200 uM after 85 hrs; assay type: functional, organism-based
[29] = test system: Caenorhabditis elegans; test: Increase of lifespan of Caenorhabditis elegans assessed as trolox equivalent of lipid soluble antioxidant metabolites at 200 uM by photochemiluminescence assay; assay type: functional, organism-based
[30] = test system: Caenorhabditis elegans; test: Increase of lifespan of Caenorhabditis elegans assessed as ascorbic acid equivalent of water soluble antioxidant metabolites at 200 uM by photochemiluminescence assay; assay type: functional, organism-based
[31] = test system: Caenorhabditis elegans; test: Reduction of frequency of pharyngeal pumping in Caenorhabditis elegans at 50 uM on 3rd to 9th day of adulthood; assay type: functional, organism-based
[32] = test system: Caenorhabditis elegans; test: Reduction of initial reproduction rate in Caenorhabditis elegans assessed as first egg deposition at 50 uM after 85 hrs; assay type: functional, organism-based
[33] = test system: Caenorhabditis elegans; test: […] assessed as ascorbic acid equivalent of water soluble antioxidant metabolites at 50 uM by photochemiluminescence assay; assay type: functional, organism-based
[34] = test system: Caenorhabditis elegans; test: Increase of lifespan of L4 larvae of Caenorhabditis elegans at 50 uM in presence of heat killed bacteria; assay type: functional, organism-based
[35] = test system: Caenorhabditis elegans; test: Reduction of body length of L4 larvae of Caenorhabditis elegans at 50 uM by microscopic analysis; assay type: functional, organism-based

`O=C(O)c1cc(O)c(O)c(O)c1` [GALLIC ACID] was tested, and the Activity [1] was “Active”, the Activity [2] was “Active” and the Activity [3] was “Active”. The Activity [4] was “inactive”, the Activity [5] was “Non-toxic” and the Activity [6] was “Active”. For the same molecule, the Activity [7] was “Active”, the Activity [8] was “inactive” and the Activity [9] was 7%. For the same molecule, the Activity [10] was 300 µM, the Activity [11] was “Active” and the Activity [12] was “inactive”. The Activity [13] was “inactive”, the Activity [14] was 11% and the Activity [15] was “inactive”. The Activity [16] was “Active”.

`O=C(OC[C@H]1O[C@@H](OC(=O)c2cc(O)c(O)c(OC(=O)c3cc(O)c(O)c(O)c3)c2)[C@H](OC(=O)c2cc(O)c(O)c(OC(=O)c3cc(O)c(O)c(O)c3)c2)[C@@H](OC(=O)c2cc(O)c(O)c(OC(=O)c3cc(O)c(O)c(O)c3)c2)[C@@H]1OC(=O)c1cc(O)c(O)c(OC(=O)c2cc(O)c(O)c(O)c2)c1)c1cc(O)c(O)c(OC(=O)c2cc(O)c(O)c(O)c2)c1` [TANNIC ACID] was tested, and the Activity [17] was “Active”, the Activity [18] was “Active” and the Activity [1] was “Active”. For the same molecule, the Activity [19] was 17.6%, the Activity [20] was “Active” and the Activity [3] was “inactive”. For the same molecule, the Activity [5] was “Toxic”, the Activity [7] was “Active” and the Activity [21] was “Active”. For the same molecule, the Activity [10] was 100 µM, the Activity [22] was 3.2% and the Activity [23] was “inactive”. The Activity [24] was “Active”.

In the case of `Oc1cc(O)c2c(c1)O[C@H](c1ccc(O)c(O)c1)[C@@H](O)C2` [CATECHIN], the Activity [5] is reported as “Non-toxic”.

`Oc1cc(O)c2c(c1)OC(c1ccc(O)c(O)c1)C(O)C2` (stereo not drawn) [CATECHIN] was tested, and the Activity [25] was “inactive”, the Activity [26] was “Active” and the Activity [1] was “Active”. The Activity [27] was “Active”, the Activity [28] was “inactive” and the Activity [3] was “Active”. The Activity [29] was “inactive”, the Activity [30] was “inactive” and the Activity [7] was “Active”. The Activity [10] was 200 µM.

With `O=c1oc2c(O)c(O)cc3c(=O)oc4c(O)c(O)cc1c4c23` [ELLAGIC ACID] the Activity [3] was “inactive”, the Activity [31] was “inactive” and the Activity [32] was “Active”. The Activity [5] was “Toxic”, the Activity [33] was “Active” and the Activity [34] was “Active”. The Activity [10] was 50 µM and the Activity [35] was “Active”.
